According to patent US10870647B2, “Imidazopyridine derivative, method for preparing same, and pharmaceutical composition containing same as active ingredient for preventing or treating cancer” (DAEGU-GYEONGBUK MEDICAL INNOVATION FOUNDATION, priority 2016, dated 2020):

Tests used:
Assay in all cases: Kinase selectivity, scanMAX Kinase assay panel (DiscoverX), % control at 1 uM
Type in all cases: binding
[1] = molecular target: T1, scanMAX Kinase assay panel (Homo sapiens, UniProt P00533, G719C); conditions: EGFR (G719C); 1 uM; read-out: Percent Control (%)
T1 construct: purchased DiscoverX
Procedure, shortened: (§1)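 A single concentration of 1 uM, in DMSO, is applied across the kinase panel. Activity against an individual enzyme is assigned where % control is less than 35.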

[2] = molecular target: T2, scanMAX Kinase assay panel (Homo sapiens, UniProt P07949, V804L); conditions: RET (V804L); 1 uM; read-out: Percent Control (%)
T2 construct: purchased DiscoverX
Procedure, shortened: as §1

[3] = molecular target: T3, scanMAX Kinase assay panel (Homo sapiens, UniProt P10721, V559D); conditions: KIT (V559D); 1 uM; read-out: Percent Control (%)
T3 construct: purchased DiscoverX
T3 sequence (P10721 26-976 V559D): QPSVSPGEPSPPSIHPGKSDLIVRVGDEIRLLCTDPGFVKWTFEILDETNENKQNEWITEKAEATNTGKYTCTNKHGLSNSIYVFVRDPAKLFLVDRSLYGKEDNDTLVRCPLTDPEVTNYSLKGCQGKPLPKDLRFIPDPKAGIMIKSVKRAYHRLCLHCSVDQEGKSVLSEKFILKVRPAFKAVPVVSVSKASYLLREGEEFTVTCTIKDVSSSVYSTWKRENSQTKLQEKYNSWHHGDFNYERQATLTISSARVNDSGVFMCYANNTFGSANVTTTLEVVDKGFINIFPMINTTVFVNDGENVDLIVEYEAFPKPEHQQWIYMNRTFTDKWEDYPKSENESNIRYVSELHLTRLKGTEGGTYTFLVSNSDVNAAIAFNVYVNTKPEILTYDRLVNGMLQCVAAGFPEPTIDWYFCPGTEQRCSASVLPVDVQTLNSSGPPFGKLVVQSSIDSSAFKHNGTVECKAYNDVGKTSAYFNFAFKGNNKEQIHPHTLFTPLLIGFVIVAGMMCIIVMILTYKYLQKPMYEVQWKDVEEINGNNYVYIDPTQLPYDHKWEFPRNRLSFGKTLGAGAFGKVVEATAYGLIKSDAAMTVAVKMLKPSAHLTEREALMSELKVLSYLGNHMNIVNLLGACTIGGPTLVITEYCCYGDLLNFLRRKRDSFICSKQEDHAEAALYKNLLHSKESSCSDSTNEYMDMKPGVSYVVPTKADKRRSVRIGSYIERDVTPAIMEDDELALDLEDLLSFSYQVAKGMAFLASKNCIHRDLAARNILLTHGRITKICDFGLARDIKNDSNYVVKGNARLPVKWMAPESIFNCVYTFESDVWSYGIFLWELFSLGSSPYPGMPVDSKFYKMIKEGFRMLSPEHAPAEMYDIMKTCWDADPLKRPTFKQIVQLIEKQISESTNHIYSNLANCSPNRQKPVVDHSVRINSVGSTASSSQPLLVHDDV
Procedure, shortened: as §1

[4] = molecular target: T4, scanMAX Kinase assay panel (Homo sapiens, UniProt P16591); conditions: FER; 1 uM; read-out: Percent Control (%)
T4 construct: purchased DiscoverX
Procedure, shortened: as §1

[5] = molecular target: T5, scanMAX Kinase assay panel (Homo sapiens, UniProt P36888, D835H); conditions: FLT3 (D835H); 1 uM; read-out: Percent Control (%)
T5 construct: purchased DiscoverX
T5 sequence (P36888 27-993 D835H): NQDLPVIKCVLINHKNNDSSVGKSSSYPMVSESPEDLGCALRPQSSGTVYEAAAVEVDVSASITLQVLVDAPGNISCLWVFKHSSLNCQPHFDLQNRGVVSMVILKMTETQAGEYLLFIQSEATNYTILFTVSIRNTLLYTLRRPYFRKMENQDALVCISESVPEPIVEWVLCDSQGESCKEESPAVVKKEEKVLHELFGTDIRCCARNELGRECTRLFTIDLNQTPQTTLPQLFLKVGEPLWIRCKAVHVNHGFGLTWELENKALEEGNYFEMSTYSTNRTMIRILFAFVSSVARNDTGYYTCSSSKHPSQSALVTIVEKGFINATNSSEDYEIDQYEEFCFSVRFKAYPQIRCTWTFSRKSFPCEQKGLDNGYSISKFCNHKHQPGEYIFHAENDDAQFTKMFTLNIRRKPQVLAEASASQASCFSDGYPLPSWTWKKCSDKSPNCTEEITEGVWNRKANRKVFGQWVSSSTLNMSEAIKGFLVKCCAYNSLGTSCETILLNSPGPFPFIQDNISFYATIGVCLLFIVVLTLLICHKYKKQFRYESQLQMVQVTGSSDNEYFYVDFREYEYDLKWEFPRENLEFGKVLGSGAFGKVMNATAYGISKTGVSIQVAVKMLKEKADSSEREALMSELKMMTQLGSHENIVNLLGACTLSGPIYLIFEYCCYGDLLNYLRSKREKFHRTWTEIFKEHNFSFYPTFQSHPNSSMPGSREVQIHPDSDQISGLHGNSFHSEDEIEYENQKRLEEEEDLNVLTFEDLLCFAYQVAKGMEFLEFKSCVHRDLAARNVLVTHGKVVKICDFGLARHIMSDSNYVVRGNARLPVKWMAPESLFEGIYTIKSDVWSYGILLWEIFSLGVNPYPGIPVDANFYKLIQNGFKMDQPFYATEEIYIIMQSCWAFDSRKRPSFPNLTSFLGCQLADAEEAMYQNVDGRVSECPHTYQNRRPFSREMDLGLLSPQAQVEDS
Procedure, shortened: as §1

[6] = molecular target: T6, scanMAX Kinase assay panel (Homo sapiens, UniProt P37023); conditions: ACVRL1; 1 uM; read-out: Percent Control (%)
T6 construct: purchased DiscoverX
Procedure, shortened: as §1

[7] = molecular target: T7, scanMAX Kinase assay panel (Homo sapiens, UniProt P68400); conditions: CSNK2A1; 1 uM; read-out: Percent Control (%)
T7 construct: purchased DiscoverX
Procedure, shortened: as §1

[8] = molecular target: T8, scanMAX Kinase assay panel (Homo sapiens, UniProt Q13705); conditions: ACVR2B; 1 uM; read-out: Percent Control (%)
T8 construct: purchased DiscoverX
T8 sequence (Q13705 19-512): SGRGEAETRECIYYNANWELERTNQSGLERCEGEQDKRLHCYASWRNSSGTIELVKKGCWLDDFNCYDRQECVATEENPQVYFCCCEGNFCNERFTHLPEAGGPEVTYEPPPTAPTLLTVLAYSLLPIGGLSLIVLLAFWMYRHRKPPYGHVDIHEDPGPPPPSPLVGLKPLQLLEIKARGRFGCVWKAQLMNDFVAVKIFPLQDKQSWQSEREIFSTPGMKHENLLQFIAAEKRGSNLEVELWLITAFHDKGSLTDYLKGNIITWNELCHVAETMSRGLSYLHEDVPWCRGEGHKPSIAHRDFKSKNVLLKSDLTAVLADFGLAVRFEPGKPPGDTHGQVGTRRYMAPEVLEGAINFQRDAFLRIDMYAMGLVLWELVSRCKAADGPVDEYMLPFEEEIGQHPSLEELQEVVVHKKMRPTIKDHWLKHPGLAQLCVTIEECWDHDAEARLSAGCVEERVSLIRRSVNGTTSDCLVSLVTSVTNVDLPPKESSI
Procedure, shortened: as §1

[9] = molecular target: T9, scanMAX Kinase assay panel (Homo sapiens, UniProt Q5S007, G2019S); conditions: LRRK2 (G2019S); 1 uM; read-out: Percent Control (%)
T9 construct: purchased DiscoverX
T9 sequence (Q5S007 whole entry G2019S): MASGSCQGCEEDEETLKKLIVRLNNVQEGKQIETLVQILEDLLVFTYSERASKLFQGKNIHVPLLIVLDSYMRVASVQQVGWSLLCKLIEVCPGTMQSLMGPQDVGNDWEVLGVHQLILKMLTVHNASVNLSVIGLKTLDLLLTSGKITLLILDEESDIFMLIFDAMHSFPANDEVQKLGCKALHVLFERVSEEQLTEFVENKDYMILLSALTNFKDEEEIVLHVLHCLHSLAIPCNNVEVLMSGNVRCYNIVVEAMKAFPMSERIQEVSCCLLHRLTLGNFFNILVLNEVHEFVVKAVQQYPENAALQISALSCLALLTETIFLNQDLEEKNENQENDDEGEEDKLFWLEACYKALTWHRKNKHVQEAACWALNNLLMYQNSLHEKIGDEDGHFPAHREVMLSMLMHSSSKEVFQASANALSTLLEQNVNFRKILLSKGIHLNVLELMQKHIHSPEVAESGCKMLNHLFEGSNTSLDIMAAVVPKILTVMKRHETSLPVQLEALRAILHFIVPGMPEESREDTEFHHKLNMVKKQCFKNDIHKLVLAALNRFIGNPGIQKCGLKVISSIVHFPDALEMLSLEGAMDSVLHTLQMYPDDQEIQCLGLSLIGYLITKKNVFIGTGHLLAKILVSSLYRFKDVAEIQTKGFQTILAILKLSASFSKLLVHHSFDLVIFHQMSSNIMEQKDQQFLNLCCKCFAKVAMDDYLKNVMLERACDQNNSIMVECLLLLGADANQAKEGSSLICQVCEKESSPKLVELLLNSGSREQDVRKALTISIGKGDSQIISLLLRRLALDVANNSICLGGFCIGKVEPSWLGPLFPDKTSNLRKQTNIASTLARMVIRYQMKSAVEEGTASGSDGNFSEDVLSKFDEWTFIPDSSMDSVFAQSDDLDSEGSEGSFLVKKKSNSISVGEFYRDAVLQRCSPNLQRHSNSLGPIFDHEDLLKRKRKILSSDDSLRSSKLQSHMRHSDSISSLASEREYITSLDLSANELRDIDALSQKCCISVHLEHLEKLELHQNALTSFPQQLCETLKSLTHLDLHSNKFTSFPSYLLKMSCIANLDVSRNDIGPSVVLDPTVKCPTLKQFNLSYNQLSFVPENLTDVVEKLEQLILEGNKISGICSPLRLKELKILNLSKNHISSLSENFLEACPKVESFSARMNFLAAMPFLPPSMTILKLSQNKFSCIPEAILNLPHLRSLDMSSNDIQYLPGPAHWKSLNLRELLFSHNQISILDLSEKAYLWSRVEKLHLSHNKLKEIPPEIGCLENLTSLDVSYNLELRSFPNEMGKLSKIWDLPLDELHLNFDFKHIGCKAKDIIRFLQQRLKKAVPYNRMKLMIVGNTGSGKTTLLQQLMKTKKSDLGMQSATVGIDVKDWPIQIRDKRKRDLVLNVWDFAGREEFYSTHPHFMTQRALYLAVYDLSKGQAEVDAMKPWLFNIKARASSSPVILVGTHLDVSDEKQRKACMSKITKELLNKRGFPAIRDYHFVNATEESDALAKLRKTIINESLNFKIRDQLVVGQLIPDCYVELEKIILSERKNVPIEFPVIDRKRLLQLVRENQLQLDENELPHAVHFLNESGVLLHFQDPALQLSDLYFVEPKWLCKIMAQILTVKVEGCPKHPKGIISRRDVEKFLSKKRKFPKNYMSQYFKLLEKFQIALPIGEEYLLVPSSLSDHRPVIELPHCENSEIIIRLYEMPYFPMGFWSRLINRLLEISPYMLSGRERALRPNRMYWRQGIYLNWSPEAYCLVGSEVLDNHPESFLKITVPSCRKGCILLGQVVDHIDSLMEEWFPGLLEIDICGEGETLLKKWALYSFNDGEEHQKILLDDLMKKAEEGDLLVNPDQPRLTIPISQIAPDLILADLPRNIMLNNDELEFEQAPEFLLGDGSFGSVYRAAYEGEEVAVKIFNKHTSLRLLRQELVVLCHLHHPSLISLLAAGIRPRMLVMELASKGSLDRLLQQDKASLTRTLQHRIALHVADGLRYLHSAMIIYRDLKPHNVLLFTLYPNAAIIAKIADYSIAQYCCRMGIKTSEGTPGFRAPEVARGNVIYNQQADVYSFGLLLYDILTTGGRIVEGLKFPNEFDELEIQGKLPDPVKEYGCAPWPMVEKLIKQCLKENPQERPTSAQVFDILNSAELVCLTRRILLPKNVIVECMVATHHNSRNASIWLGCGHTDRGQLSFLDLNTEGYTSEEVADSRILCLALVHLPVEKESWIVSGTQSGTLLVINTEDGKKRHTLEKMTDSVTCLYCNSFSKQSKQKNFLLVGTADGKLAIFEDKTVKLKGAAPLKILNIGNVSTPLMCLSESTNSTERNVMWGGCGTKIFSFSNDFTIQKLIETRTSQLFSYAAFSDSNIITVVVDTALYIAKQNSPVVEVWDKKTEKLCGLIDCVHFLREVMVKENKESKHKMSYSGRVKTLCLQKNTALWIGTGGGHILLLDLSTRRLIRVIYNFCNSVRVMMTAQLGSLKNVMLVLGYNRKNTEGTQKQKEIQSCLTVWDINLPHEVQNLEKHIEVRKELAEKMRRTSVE
Procedure, shortened: as §1

[10] = molecular target: T10, scanMAX Kinase assay panel (Homo sapiens, UniProt Q86UE8); conditions: TLK2; 1 uM; read-out: Percent Control (%)
T10 construct: purchased DiscoverX
T10 sequence (Q86UE8 whole entry): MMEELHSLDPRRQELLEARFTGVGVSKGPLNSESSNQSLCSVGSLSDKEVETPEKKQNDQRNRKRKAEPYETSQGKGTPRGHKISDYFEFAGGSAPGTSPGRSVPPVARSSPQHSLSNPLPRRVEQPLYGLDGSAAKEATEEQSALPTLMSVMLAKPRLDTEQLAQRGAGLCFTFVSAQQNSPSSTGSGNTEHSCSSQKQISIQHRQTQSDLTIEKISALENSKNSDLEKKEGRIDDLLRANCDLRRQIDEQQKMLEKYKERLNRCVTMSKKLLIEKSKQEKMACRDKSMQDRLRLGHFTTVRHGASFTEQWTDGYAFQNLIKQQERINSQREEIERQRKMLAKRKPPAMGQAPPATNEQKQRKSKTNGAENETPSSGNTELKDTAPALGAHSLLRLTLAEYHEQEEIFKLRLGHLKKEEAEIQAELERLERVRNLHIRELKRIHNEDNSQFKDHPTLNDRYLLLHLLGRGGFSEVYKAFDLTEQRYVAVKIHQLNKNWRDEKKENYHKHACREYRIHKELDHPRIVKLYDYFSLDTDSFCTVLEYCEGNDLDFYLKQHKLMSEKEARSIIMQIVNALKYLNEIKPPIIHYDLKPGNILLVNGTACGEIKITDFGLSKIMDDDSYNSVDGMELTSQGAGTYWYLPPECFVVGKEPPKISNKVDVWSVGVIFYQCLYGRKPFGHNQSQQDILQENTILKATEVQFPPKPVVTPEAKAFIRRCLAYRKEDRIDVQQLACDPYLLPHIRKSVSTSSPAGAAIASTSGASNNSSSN
Procedure, shortened: as §1

[11] = molecular target: T11, scanMAX Kinase assay panel (Homo sapiens, UniProt Q86Z02); conditions: HIPK1; 1 uM; read-out: Percent Control (%)
T11 construct: purchased DiscoverX
Procedure, shortened: as §1

[12] = molecular target: T12, scanMAX Kinase assay panel (Homo sapiens, UniProt Q9P1W9); conditions: PIM2; 1 uM; read-out: Percent Control (%)
T12 construct: purchased DiscoverX
T12 sequence (Q9P1W9 whole entry): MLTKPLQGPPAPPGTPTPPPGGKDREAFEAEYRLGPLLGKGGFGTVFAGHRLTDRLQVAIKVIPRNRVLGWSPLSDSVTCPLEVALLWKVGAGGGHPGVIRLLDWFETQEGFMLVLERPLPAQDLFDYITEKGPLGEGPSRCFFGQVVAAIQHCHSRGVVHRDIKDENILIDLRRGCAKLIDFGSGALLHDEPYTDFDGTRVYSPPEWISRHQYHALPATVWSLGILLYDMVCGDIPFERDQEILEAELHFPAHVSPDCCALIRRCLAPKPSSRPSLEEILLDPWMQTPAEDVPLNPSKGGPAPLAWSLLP
Procedure, shortened: as §1

[13] = molecular target: T13, scanMAX Kinase assay panel (Homo sapiens, UniProt Q9UEE5); conditions: DRAK1; 1 uM; read-out: Percent Control (%)
T13 construct: purchased DiscoverX
T13 sequence (Q9UEE5 1-414): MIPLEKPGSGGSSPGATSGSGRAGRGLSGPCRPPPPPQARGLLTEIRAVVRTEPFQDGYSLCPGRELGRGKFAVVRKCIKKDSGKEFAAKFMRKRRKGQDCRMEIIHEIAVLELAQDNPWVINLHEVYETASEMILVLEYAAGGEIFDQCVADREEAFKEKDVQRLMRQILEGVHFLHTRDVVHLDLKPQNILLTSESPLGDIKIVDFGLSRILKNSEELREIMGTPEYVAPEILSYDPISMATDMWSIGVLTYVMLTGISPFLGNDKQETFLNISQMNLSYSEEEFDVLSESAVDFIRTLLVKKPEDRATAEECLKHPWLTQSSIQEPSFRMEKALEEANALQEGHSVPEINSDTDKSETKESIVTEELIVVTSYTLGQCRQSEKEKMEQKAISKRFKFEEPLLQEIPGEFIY
Procedure, shortened: as §1

Question: Which results are given for `Cc1ccc(NC(=O)C2(C(=O)Nc3ccc(F)cc3)CC2)cc1C#Cc1cnc2c(Nc3cnn(C(C)C)c3)cccn12` [Example 78]?
Answer: remaining binding at 1 µM [1]: 97%; remaining binding at 1 µM [2]: 100%; remaining binding at 1 µM [3]: 0%; remaining binding at 1 µM [4]: 100%; remaining binding at 1 µM [5]: 95%; remaining binding at 1 µM [6]: 100%; remaining binding at 1 µM [7]: 100%; remaining binding at 1 µM [8]: 94%; remaining binding at 1 µM [9]: 100%; remaining binding at 1 µM [10]: 100%; remaining binding at 1 µM [11]: 91%; remaining binding at 1 µM [12]: 100%; remaining binding at 1 µM [13]: 100%

Question: What does the source list for `Cc1cn(-c2cc(NC(=O)c3ccc(C)c(C#Cc4cnc5c(Nc6cnn(C)c6)cccn45)c3)cc(C(F)(F)F)c2)cn1` [Example 12, 4-methyl-N-(3-(4-methyl-1H-imidazol-1-yl)-5-(trifluoromethyl)phenyl)-3-((8-((1-methyl-1H-pyrazol-4-yl)amino)imidazo[1,2-a]pyridin-3-yl)ethynyl)benzamide]?
Answer: remaining binding at 1 µM [1]: 21%; remaining binding at 1 µM [2]: 2%; remaining binding at 1 µM [3]: 1%; remaining binding at 1 µM [4]: 40%; remaining binding at 1 µM [5]: 10%; remaining binding at 1 µM [6]: 99%; remaining binding at 1 µM [7]: 100%; remaining binding at 1 µM [8]: 96%; remaining binding at 1 µM [9]: 100%; remaining binding at 1 µM [10]: 97%; remaining binding at 1 µM [11]: 71%; remaining binding at 1 µM [12]: 91%; remaining binding at 1 µM [13]: 100%

Question: Which results are given for `Cc1ccc(C(=O)Nc2ccc(CN3CCN(C)CC3)c(C(F)(F)F)c2)cc1C#Cc1cnc2c(Nc3cnn(C)c3)cccn12` [Example 1, 4-methyl-3-((8-((1-methyl-1H-pyrazol-4-yl)amino)imidazo[1,2-a]pyridin-3-yl)ethynyl)-N-(4-((4-methylpiperazin-1-yl)methyl)-3-(trifluoromethyl)phenyl)benzamide]?
Answer: remaining binding at 1 µM [1]: 1%; remaining binding at 1 µM [2]: 0%; remaining binding at 1 µM [3]: 0%; remaining binding at 1 µM [4]: 1%; remaining binding at 1 µM [5]: 1%; remaining binding at 1 µM [6]: 99%; remaining binding at 1 µM [7]: 83%; remaining binding at 1 µM [8]: 93%; remaining binding at 1 µM [9]: 27%; remaining binding at 1 µM [10]: 86%; remaining binding at 1 µM [11]: 51%; remaining binding at 1 µM [12]: 100%; remaining binding at 1 µM [13]: 98%
